Measured values reported in patent US20050037446A1, “Agents that recognize src when phosphorylated at serine 17” (priority 2001, published 2005).

Tests used:
Raf-1 and Rap1 = experiment: Association of Raf-1 with His-Rap1 (Ni-NTA pull-down), NIH3T3 cells; assay type: cell-based; settings: Forskolin-stimulated NIH3T3 cells
Experimental: NIH3T3 cells were transfected using Lipofectamine (see EXAMPLE 1) with polyhistidine-tagged Rap1 along with CBR or Cb1-ct (see EXAMPLE 2) as previously described (Schmitt and Stork, Mol. Cell. Biol. 21:3671-83, 2001; Schmitt and Stork, J. Biol. Chem. 275:25342-50,2000). Cells were left untreated or stimulated with Forskolin, as described in EXAMPLE 1. Subsequently, cells were lysed in ice-cold buffer containing 1% NP40, 10 mM Tris, pH 8.0, 20 mM NaCl, 30 mM MgCl2, 1 mM PMSF, and 0.5 mg/ml aprotinin and supernatants prepared by low speed centrifugation. Transfected His-Rap1 proteins were precipitated from supernatants containing equal amounts of protein using Ni-NTA agarose (Qiagen Inc., Chatswoth, Calif.) and washed with 20 mM imidazole in lysis buffer and eluted with 500 mM imidazole and 5 mM EDTA in phosphate-buffered saline. The eluates containing His-Rap1 proteins were separated on SDS-PAGE, blotted onto PVDF membranes, and Raf-1 proteins detected by Western blotting using anti-Raf-1 antibodies (Santa Cruz Biotechnology Inc.).

ERK1/2 = ERK1/2 phosphorylation Western blot, NIH3T3 cells; assay type: cell-based; settings: inhibition of SFKs
Experimental: To determine the role of SFKs in cAW's antagonism of extracellular signal regulated kinase (ERK) activation, the following methods were used. NIH3T3 cells were incubated in the presence or absence of either H89 or PP2 for 20 minutes, pretreated with Forskolin for five minutes, and then stimulated with 100 ng/ml, epidermal growth factor (EGF, Sigma), or 100 ng/ml platelet-derived growth factor (PDGF, Sigma) for five minutes, as described in EXAMPLE 1. Cell lysates were analyzed by Western blot for phosphorylation of endogenous ERK1/2 or total ERK2. To detect phosphorylation of endogenous ERK1/2, phosphorylation-specific ERK antibodies (PERK) that recognize phosphorylated ERK1 (pERK1) and ERK2 (pERK2), at residues threonine 183 and tyrosine 185 were used (New England Biolabs, Beverly, Mass.).

Ras = Ras activation affinity assay in SYF and Src++ cells; assay type: cell-based, mouse
Experimental: Endogenous GTP-loaded Ras was determined using a Ras activation affinity assay as follows. Hek293 cells were grown, stimulated, and lysed as described above. Activated Ras was assayed as previously described (Schmitt and Stork, Mol. Cell. Biol. 21:3671-83, 2001). Briefly, equivalent amounts of lysates from stimulated cells were incubated with GST-Rafl-RBD (Ras-binding domain) as specified by the manufacturer (Upstate Biotechnology, Lake Placid, N.Y.). Proteins were eluted with 2×Laemmli buffer and applied to a 12% SDS polyacrylamide gel. Proteins were transferred to a PVDF membrane, blocked at room temperature for 1 hour in 5% milk and probed with either Ras or Flag antibody overnight at 4° C., followed by an HRP-conjugated anti-mouse secondary. Proteins were detected using enhanced chemiluminescence.
To determine which SFK was mediating these effects, cell lines derived from mouse embryo fibroblasts that lack SFKs, were used as described in Example 3. SYF and Srcd cells were transfected with Flag-Rap 1, and WT Src or pcDNA3 vector alone as described in Example 3. Cells were stimulated with isoproterenol or left untreated, and then cell lysates were examined for active GTP-loaded Rap1 (Flag-Rap1-GTP) as described in Examples 1 and 6. Isoproterenol's ability to activate Rap1 was absent in SYF cells, but was retained in Src^++ cells. […]

Cb1/C3G with Src = experiment: Co-immunoprecipitation of Src, Cb1 and C3G, Hek293 cells; assay type: cell-based
Experimental: To examine whether a similar mechanism might underlie signaling from GPCRs, the following methods were used. Hek293 cells were transfected with Flag-tagged SrcWT, SrcS17A, or SrcS17D, using the methods disclosed herein. Cells were treated with 10 μM isoproterenol and equivalent amounts of lysates immunoprecipitated with Flag antibody. The presence of endogenous Cb1 within the eluates was examined by Western blotting. The ability of isoproterenol to induce Rap1-recruitment of B-Raf was blocked by both Cb1-ct and CBR.
Cells were treated with isoproterenol or left untreated and equal amounts of lysates immunoprecipitated with Myc antibody and the presence of endogenous C3G within the eluates examined by Westein blot using the methods disclosed herein.
Equivalent amounts of lysates were immunoprecipitated with Flag antibody and the presence of endogenous C3G within the eluates was examined by Western blots as described herein.

SMILES | Effect on association between Raf-1 and Rap1 (Raf-1 and Rap1) | Effect on EGF's or PDGF's activation of ERKs (ERK1/2) | Effect on Forskolin's inhibition of ERKs (ERK1/2) | Ras activation by agonist (Ras; SYF cells) | Ras activation by agonist (Ras; Src++ cells) | Association between C3G and transfected Cb1 (Cb1/C3G with Src)
CC(C)(C)n1nc(-c2ccc(Cl)cc2)c2c(N)ncnc21 [PP2, 4-amino-5-(4-chlorophenyl)-7-(t-butyl)pyazolo[3,4-d]pyrimidine] | blocked | no observable effect | prevented Forskolin's inhibition of ERKs |  |  | 
CC(C)NCC(O)c1ccc(O)c(O)c1 (stereo not drawn) [isoproterenol] |  |  |  | absent | retained | induced an association
